Data taken from patent US20130045985A1, “N-(5-FLUORO-2-((4-METHYLBENZYL)OXY)PYRIMIDIN-4-YL)BENZAMIDE DERIVATIVES” (Dow AgroSciences LLC, priority 2011, published 2013).

How the values were obtained:
[1] = tested on: Mycosphaerella graminicola; Anamorph: Septoria tritici; Bayer Code SEPTTR; experiment: Fungicidal activity: leaf blotch of wheat (SEPTTR), one-day protectant and three-day curative; format: in vivo, Septoria tritici on wheat plants (variety Yuma); conditions: wheat plants, rating of % disease control
Description: Evaluation of Fungicidal Activity: Leaf Blotch of Wheat (Mycosphaerella graminicola; Anamorph: Septoria tritici; Bayer Code SEPTTR)
Wheat plants (variety Yuma) were grown from seed in a greenhouse in 50% mineral soil/50% soil-less Metro mix until the first leaf was fully emerged, with 7-10 seedlings per pot. These plants were inoculated with an aqueous spore suspension of Septoria tritici either prior to or after fungicide treatments. After inoculation the plants were kept in 100% relative humidity (one day in a dark dew chamber followed by two to three days in a lighted dew chamber) to permit spores to germinate and infect the leaf. The plants were then transferred to a greenhouse for disease to develop.
The following table presents the activity of typical compounds of the present disclosure when evaluated in these experiments. The effectiveness of the test compounds in controlling disease was determined by assessing the severity of disease on treated plants, then converting the severity to percent control based on the level of disease on untreated, inoculated plants.
In each case of Table I the rating scale is as follows: […]

Compound: Cc1ccc(COc2ncc(F)c(NC(=O)c3ccccc3)n2)cc1 [Cmpd 1, N-(5-fluoro-2-(4-methylbenzyloxy)pyrimidin-4-yl)benzamide]
- SEPTTR 100 PPM 1DP ([1]; One-Day Protectant (1DP)): B (51-75)
- SEPTTR 100 PPM 3DC ([1]; Three-Day Curative (3DC)): A (76-100)
- melting point: 93 to 95 °C
